Where “and” joins values, the source holds several entries; their conditions need not be identical. Identical values can stand only once. Like-named read-outs stand apart in the source and are kept apart here.
Legend:
recombinant human AChE [1] = biological target: T1, recombinant human AChE (Homo sapiens, UniProt P22303); experiment: biochemical; format: biochemical; conditions: for Emax: read-out: efficacy (%), Fluorescence
recombinant human AChE [2] = biological target: T1, recombinant human AChE; experiment: biochemical; format: biochemical; conditions: for Emax: read-out: efficacy (%), Colorimetric, +Rat MS
recombinant human AChE [3] = biological target: T1, recombinant human AChE; format: biochemical
recombinant human AChE [4] = biological target: T1, recombinant human AChE; experiment: biochemical
recombinant human AChE [5] = biological target: T1, recombinant human AChE; experiment: biochemical; format: biochemical; conditions: for Emax: read-out: efficacy (%), Colorimetric
recombinant human AChE [6] = biological target: T1, recombinant human AChE; experiment: biochemical; format: biochemical; conditions: for Emax: read-out: efficacy (%), Fluorescence, +Rat MS
AChE = conditions: following exposure; ref International Programme on Chemical Safety, 1989; cited from earlier work
cholinesterase = conditions: following exposure; rats, mice, birds, fish, and farm animals; ref International Programme on Chemical Safety, 1989; cited from earlier work
[7] = IC50 (μM), Colorimetric, +Human MS

T1 sequence (P22303 32-614): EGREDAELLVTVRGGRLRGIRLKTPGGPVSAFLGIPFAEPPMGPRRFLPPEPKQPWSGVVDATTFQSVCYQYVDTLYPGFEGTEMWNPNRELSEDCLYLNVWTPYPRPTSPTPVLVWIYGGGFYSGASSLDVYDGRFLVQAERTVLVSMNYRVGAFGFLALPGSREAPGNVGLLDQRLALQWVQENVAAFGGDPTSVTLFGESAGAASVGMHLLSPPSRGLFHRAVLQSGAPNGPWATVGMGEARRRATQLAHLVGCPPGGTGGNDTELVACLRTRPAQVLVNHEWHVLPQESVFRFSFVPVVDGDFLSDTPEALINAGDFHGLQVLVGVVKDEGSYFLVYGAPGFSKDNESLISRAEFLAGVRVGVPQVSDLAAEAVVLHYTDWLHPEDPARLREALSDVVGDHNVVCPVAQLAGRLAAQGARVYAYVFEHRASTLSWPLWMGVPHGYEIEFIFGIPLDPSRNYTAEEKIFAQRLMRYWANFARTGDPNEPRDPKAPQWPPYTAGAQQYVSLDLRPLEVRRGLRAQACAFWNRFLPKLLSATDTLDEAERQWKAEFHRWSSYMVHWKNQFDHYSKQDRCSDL

Compound | Emax (recombinant human AChE [1]) [%] | Emax (recombinant human AChE [2]) [%] | IC50 (μM), Colorimetric (recombinant human AChE [5]) | Emax (recombinant human AChE [6]) [%] | Emax (recombinant human AChE [5]) [%] | further results
CCOC(=O)CC(SP(=S)(OC)OC)C(=O)OCC (stereo not shown) [Malathion] | 77 | 59.4 | Inactive | – | – | IC50 (μM), Fluorescence, +Human MS (recombinant human AChE [3]): Inactive; IC50 (μM), Colorimetric, +Human MS (recombinant human AChE [4]): Inactive; IC50 (μM), Fluorescence, +Rat MS (recombinant human AChE [6]): Inactive
CCOP(=S)(OCC)Oc1nc(Cl)c(Cl)cc1Cl [Chlorpyrifos] | 100 | 98.8 | Inactive | 89.8 | – | efficacy (%), Fluorescence, +Human MS (recombinant human AChE [3]): 1.22±0.00 (−102.89±2.97) %; efficacy (%), Colorimetric, +Human MS (recombinant human AChE [4]): 1.71±0.47 (−93.65±1.00) %; inhibition of AChE activity (recombinant human AChE [4]): did not inhibit AChE activity; IC50 (recombinant human AChE [4]; [7]): 1.71 µM; IC50 (recombinant human AChE [4]; IC50, inhibition of AChE): 1.31 µM and 0.78 µM and 0.8 µM
CCCCSP(=O)(SCCCC)SCCCC [Tribufos] | 60.8 | – | Inactive | – | – | –
COP(=O)(OC)O/C(C)=C/C(=O)N(C)C [Dicrotophos] | 82.7 | – | – | – | 32.5 | –
COP(=O)(OC)O/C(=C\Cl)c1cc(Cl)c(Cl)cc1Cl [Z-Tetrachlorvinphos] | 75.7 | – | Inactive | – | – | –
CCOP(=O)(OCC)Oc1cc(C)nc(C(C)C)n1 [Diazoxon] | 77.7 | – | – | – | 95.2 | IC50 (recombinant human AChE [5]): 1.33 µM
CNC(=O)CSP(=S)(OC)OC [Dimethoate] | – | – | Inactive | – | – | IC50 (μM), Fluorescence (recombinant human AChE [1]): Inactive; AChE inhibition in human volunteers (AChE): no AChE inhibition was observed; cholinesterase activity in animals (cholinesterase): cholinesterase activity was inhibited; IC50 (μM), Colorimetric, +Rat MS (recombinant human AChE [2]): Inactive; IC50 (μM), Fluorescence, +Human MS (recombinant human AChE [3]): Inactive; IC50 (μM), Colorimetric, +Human MS (recombinant human AChE [4]): Inactive; IC50 (μM), Fluorescence, +Rat MS (recombinant human AChE [6]): Inactive
CCOP(=S)(OCC)Oc1ccc2c(C)c(Cl)c(=O)oc2c1 [Coumaphos] | 83.3 | 96.5 | Inactive | 95 | – | efficacy (%), Fluorescence, +Human MS (recombinant human AChE [3]): 12.95±1.05 (−67.18±4.87) %; efficacy (%), Colorimetric, +Human MS (recombinant human AChE [4]): 8.06±1.94 (−98.15±5.15) %; IC50 (recombinant human AChE [4]; [7]): 8.06 µM
CNC(=O)CSP(=O)(OC)OC [Omethoate] | 46.3 | – | Inactive | – | – | IC50 (recombinant human AChE [1]): 68.9 µM
CCOP(=S)(OCC)SCSC(C)(C)C [Terbufos] | – | 95.7 | Inactive | 85.3 | – | IC50 (μM), Fluorescence (recombinant human AChE [1]): Inactive; IC50 (μM), Fluorescence, +Human MS (recombinant human AChE [3]): Inactive; efficacy (%), Colorimetric, +Human MS (recombinant human AChE [4]): 31.74±5.73 (−57.67±2.16) %; IC50 (recombinant human AChE [4]; [7]): 31.7 µM
CCCSP(=O)(OCC)SCCC [Ethoprop] | – | – | – | – | 43.4 | –
CCOP(=O)(SC(C)CC)N1CCSC1=O (stereo not shown) [Fosthiazate] | – | – | Inactive | – | – | IC50 (μM), Fluorescence (recombinant human AChE [1]): Inactive; inhibitory effect on AChE activity (in words) (recombinant human AChE [1]): did not show inhibition effects; inhibitory effect on AChE activity (in words) (recombinant human AChE [5]): did not show inhibition effects
CCOC(=O)CC(SP(=O)(OC)OC)C(=O)OCC (stereo not shown) [Malaoxon] | 95.2 | – | – | – | 91.1 | –
CCN(CC)c1nc(C)cc(OP(=S)(OC)OC)n1 [Pirimiphos-methyl] | – | – | Inactive | 42 | – | IC50 (μM), Fluorescence (recombinant human AChE [1]): Inactive; IC50 (μM), Colorimetric, +Rat MS (recombinant human AChE [2]): Inactive; IC50 (μM), Fluorescence, +Human MS (recombinant human AChE [3]): Inactive; IC50 (μM), Colorimetric, +Human MS (recombinant human AChE [4]): Inactive; IC50 (recombinant human AChE [6]): 41.7 µM
CCOP(=S)(OCC)Oc1cc(C)nc(C(C)C)n1 [Diazinon] | 96.3 | 73.1 | – | – | 102 | efficacy (%), Fluorescence, +Human MS (recombinant human AChE [3]): 113.22±7.66 (−71.22±6.26) %; IC50 (μM), Colorimetric, +Human MS (recombinant human AChE [4]): Inactive; IC50 (μM), Fluorescence, +Rat MS (recombinant human AChE [6]): Inactive
COP(=O)(OC)C(O)C(Cl)(Cl)Cl (stereo not shown) [Trichlorfon] | 91.5 | – | – | – | 30 | –
COP(=O)(OC)OC(Br)C(Cl)(Cl)Br (stereo not shown) [Naled] | – | – | – | – | 46.5 | IC50 (μM), Fluorescence (recombinant human AChE [1]): Inactive; IC50 (recombinant human AChE [5]): 61.3 µM
CCOP(=S)(OCC)OC(Cl)C(Cl)(Cl)Cl (stereo not shown) [Chlorethoxyfos] | 99.2 | 105 | – | 100 | 46.3 | efficacy (%), Fluorescence, +Human MS (recombinant human AChE [3]): 31.57±8.80 (−99.07±7.79) %; efficacy (%), Colorimetric, +Human MS (recombinant human AChE [4]): 10.88±0.00 (−102.91±1.64) %; IC50 (recombinant human AChE [4]; [7]): 10.9 µM
CCOP(=S)(OCC)SCSCC [Phorate] | 44.4 | 96.3 | Inactive | 72 | – | IC50 (μM), Fluorescence, +Human MS (recombinant human AChE [3]): Inactive; IC50 (μM), Colorimetric, +Human MS (recombinant human AChE [4]): Inactive; inhibitory effect on AChE activity (in words) (recombinant human AChE [4]): did not show inhibitory effects
CCCSP(=O)(OCC)Oc1ccc(Br)cc1Cl (stereo not shown) [Profenofos] | 93.7 | – | – | – | 83.2 | –
CCOP(=S)(Oc1cnc(C(C)(C)C)nc1)OC(C)C (stereo not shown) [Tebupirimfos] | 90.4 | 100 | – | 91 | 53 | efficacy (%), Fluorescence, +Human MS (recombinant human AChE [3]): 48.81±5.61 (−70.67±3.28) %; efficacy (%), Colorimetric, +Human MS (recombinant human AChE [4]): 14.39±2.31 (−95.21±2.02) %; IC50 (recombinant human AChE [4]; [7]): 14.4 µM
COP(=O)(OC)OC=C(Cl)Cl [Dichlorvos] | 76.8 | – | – | – | 34.9 | –
COP(=S)(OC)SCN1C(=O)c2ccccc2C1=O [Phosmet] | 65.3 | – | Inactive | 43.5 | – | IC50 (μM), Colorimetric, +Rat MS (recombinant human AChE [2]): Inactive; IC50 (μM), Fluorescence, +Human MS (recombinant human AChE [3]): Inactive; IC50 (μM), Colorimetric, +Human MS (recombinant human AChE [4]): Inactive
COP(N)(=O)SC (stereo not shown) [Methamidophos] | 103 | – | – | – | 38.7 | –
COP(=O)(NC(C)=O)SC (stereo not shown) [Acephat] | – | – | Inactive | – | – | IC50 (μM), Fluorescence (recombinant human AChE [1]): Inactive

Source: PMC6713233 (Toxicology in vitro : an international journal published in …, 2019)
